These results are taken from US6486096B1, “Herbicidal compositions with acylated aminophenylsulfonylureas” (priority 1998, dated 2002).

Like-named read-outs stand apart in the source and are kept apart here.

Common to all, as to type: in vivo
In data set [1] the test system is EPHHL = Euphorbia heterophylla. The data set can be described thus: Herbicidal action, visual scoring. As to conditions: Table 13, post-emergence, scoring 3 weeks after application, g of A.S./ha by row: r7 30, r8 100, r9 150, r10 30 + 50. As to the method:
(§1) The herbicidal activity of the active substances or active substance mixtures was scored visually with the aid of the treated parcels in comparison with untreated control parcels. Damage to and development of all above-ground parts of plants was recorded here. Scoring was carried out on a percentage scale (100% action=all plants died; 50% action=50% of the plants and green plant parts died; 0% action=no discernible action=like control parcels. The mean of the scoring values of 4 parcels in each case was taken.
(§2) Seeds or rhizome pieces of monocotyledonous and dicotyledonous weeds are placed in sandy loam soil in pots, covered with soil and grown in the greenhouse under good growth conditions (temperature, humidity, water supply). Three weeks after sowing, the test plants in the three-leaf stage are treated with the compositions according to the invention. The compositions according to the invention which are formulated as wettable powders or as emulsion concentrates are sprayed in various dosages on the green parts of the plants at an application rate of 600 to 800 l of water/ha (converted). After the test plants have remained in the greenhouse for about 3 to 4 weeks under optimal growth conditions, the effect of the products is scored visually by comparison with untreated controls. When applied post-emergence, too, the compositions according to the invention have a good herbicidal activity against a broad spectrum of economically important grass weeds and broad-leaved weeds.
(§3) Crop plants were raised outdoors under natural outdoor conditions on plots in which seeds or rhizome sections of typical harmful plants had been sown or the natural weed infestation was used. The treatment with the compositions according to the invention was carried out after the emergence of the harmful plants and the crop plants, as a rule in the 2 to 4-leaf stage; in some cases (as indicated) the application of individual active substances or active substance combinations was carried out pre-emergence (cf. Example 1) or as a sequence treatment, in some cases pre-emergence and/or post-emergence.
(§4) After the application, e.g. 2, 4, 6 and 8 weeks after application, the action of the preparations was scored visually in comparison with untreated controls (cf. score in Example 1). […] The crop plants, however, were not damaged or were only insignificantly damaged as a result of the treatment with the herbicidal compositions.

The subject of another data set is SIDSP = Sida spinosa. Briefly: Herbicidal action, visual scoring. The settings on record: post-emergence. As to the method:
as §1, §2, §3, §4

In data set [2] the test system is CHEAL = Chenopodium album. The data set can be described thus: Herbicidal action, visual scoring. The settings on record: Table 4; post-emergence; scoring 40 days after application; g of A.S./ha: 30, 45, 60, 300, 45 + 300. As to the method:
as §1, §2, §3, §4

The subject of data set [3] is IPOPU = Ipomoea purpureum. The data set can be described thus: Herbicidal action, visual scoring. The settings on record: Table 3; post-emergence; scoring 6 weeks after application; g of A.S./ha 15, 30, 45, 60, 300, 30 + 300. As for the experimental part: as §1, §2, §3, §4
Another data set concerns corn. The settings on record: post-emergence. As to the method: as §1, §3, §4
Data set [4] has as its system POLCO = Polygonum convolvulus. Briefly: Herbicidal action, visual scoring. The settings on record: Table 4; post-emergence; scoring 40 days after application; g of A.S./ha: 30, 45, 60, 300, 45 + 300. As to the method: The herbicidal activity of the active substances or active substance mixtures was scored visually with the aid of the treated parcels in comparison with untreated control parcels. Damage to and development of all above-ground parts of plants was recorded here. Scoring was carried out on a percentage scale (100% action=all plants died; 50% action=50% of the plants and green plant parts died; 0% action=no discernible action=like control parcels. The mean of the scoring values of 4 parcels in each case was taken. […]
as §3, §4

In another data set the test system is AGRRE = Agropyron repens. The data set can be described thus: Herbicidal action, visual scoring. As to conditions: Table 6, post-emergence, scoring 3 weeks after application, g of A.S./ha by row: r6 30, r7 45, r8 60, r9 2.5, r10 5, r11 7.5, r12 30 + 2.5, r13 30 + 5. As for the experimental part: as §1, §2, §3, §4
For data set [5], the system named is ECHCG = Echinochloa crus-galli. Briefly: Herbicidal action, visual scoring. As to conditions: Table 12, post-emergence, scoring 3 weeks after application, g of A.S./ha by row: r6 120, r7 60, r8 30, r9 15, r10 1000, r11 500, r12 250, r13 30 + 500, r14 30 + 250, r15 15 + 250, r16 40, r17 20, r18 10, r19 30 + 20, r20 15 + 20, r21 30 + 10, r22 200, r23 100, r24 50, r25 30 + 100, r26 15 + 100, r27 30 + 50. As to the method: as §1, §2, §3, §4

Setting [6] is: Table 3, scoring 6 weeks after application, g of A.S./ha 15, 30, 45, 60, 300, 30 + 300.
Setting [7] is: Table 5, scoring 3 weeks after application, g of A.S./ha by row: r6 15, r7 30, r8 45, r9 60, r10 900, r11 30 + 900.

With `CS(=O)(=O)c1ccc(C(=O)C2C(=O)CCCC2=O)c([N+](=O)[O-])c1` [(B1.4.4), 2-(4-Mesyl-2-nitrobenzoyl)cyclohexane-1,3-dione], the entries for the “Herbicidal action EPHHL” value in data set [1] (100 g of active substance per ha) and in data set [1] (150 g of active substance per ha) were 63% and 73%, respectively.
As for `N#Cc1cc(Br)c(O)c(Br)c1` [(B2.2.1), bromoxynil], the “Herbicidal action SIDSP” value with SIDSP = Sida spinosa (setting [6]) worked out at 70%. The “Herbicidal action CHEAL” value in data set [2] is recorded as 75%. In addition, the “Herbicidal action IPOPU” value in data set [3] was determined as 53%. For the same compound, the Damage on corn worked out at 0% in the data set on corn (setting [6]) and 0% with corn (Table 4, scoring 40 days after application, g of A.S./ha: 30, 45, 60, 300, 45 + 300). For the same compound, the “Herbicidal action POLC0” value in data set [4] stood at 45%.
As for `CCCCCCCCSC(=O)Oc1cc(Cl)nnc1-c1ccccc1` [(B2.3.3), pyridate], in the data set with SIDSP = Sida spinosa (setting [7]), the “Herbicidal action against SIDSP” value was 10%. Besides, the Damage on corn with corn (setting [7]) is on record as 0%.
`COc1nc(C)nc(NC(=O)NS(=O)(=O)c2cc(I)ccc2C(=O)O)n1` [(B2.4.4), iodosulfuron]: the “Herbicidal action against AGRRE” value in the data set with AGRRE = Agropyron repens (2.5 g of A.S./ha) is reported as 0%; with AGRRE = Agropyron repens (5 g of A.S./ha), 10%.
As to `CC(C)N.O=C(O)CNCP(=O)(O)O` [(B3.2.1), glyphosate-isopropylammonium], the “Herbicidal action ECHCG” value in data set [5] (250 g active substance per ha) is on record as 73%; in data set [5] (500 g active substance per ha), 83%; in data set [5] (1000 g active substance per ha), 98%.
